Laboratory results from patent US20240197726A1, “NOVEL TETRAHYDROISOQUINOLINE ALKALOID COMPOUND CONTAINING MACROCYCLE” (THE UNIVERSITY OF TOKYO, priority 2021, published 2024).
Read-outs that look alike come from different tables or passages of the source.

How the values were obtained:
Type in all cases: cell-based
[1] = tested on: SF-539 central nervous system cancer cells; assay: antitumor activity, sulforhodamine B cell growth assay, SF-539; settings: Homo sapiens
Outline: (§1)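 SRB absorbance at 525 nm after 48 h drug exposure; RPMI 1640 + 5% FBS, overnight attachment. % growth from control, test and T0 wells; log GI50/TGI/LC50 by linear interpolation between bracketing concentrations at PG 50/0/−50.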

[2] = tested on: DMS273 lung cancer cells; assay: antitumor activity, sulforhodamine B cell growth assay, DMS273; settings: Homo sapiens, DMS-273
Outline: as §1

[3] = tested on: SF-295 central nervous system cancer cells; assay: antitumor activity, sulforhodamine B cell growth assay, SF-295; settings: Homo sapiens
Outline: as §1

[4] = tested on: MDA-MB-231 breast cancer cells; assay: antitumor activity, sulforhodamine B cell growth assay, MDA-MB-231; settings: Homo sapiens
Outline: as §1

[5] = tested on: DMS114 lung cancer cells; assay: antitumor activity, sulforhodamine B cell growth assay, DMS114; settings: Homo sapiens, DMS-114
Outline: as §1

[6] = tested on: NCI-H23 lung cancer cells; assay: antitumor activity, sulforhodamine B cell growth assay, NCI-H23; settings: Homo sapiens
Procedure: (§2) The THIQ compound containing a macrocyclic structure of the present invention was administered to various cancer cell lines, and the antitumor activity (Go value) was observed. Specifically, verification was performed according to the literature (Yamori, T.; Matsunaga, A.; Sato, S.; Yamazaki, K.; Komi, A.; Ishizu, K. et al. Cancer Res. 1999, 59, 4042) by the following procedure.
(§3) Cells were plated at an appropriate density in a 96-well plate in RPMI 1640 together with 5% fetal bovine serum, and adhered overnight. The cells were exposed to a drug for 48 hours. Then, according to the sulforhodamine B assay described by Skehan et al (Skehan P., Storeng R., Scudiero D., Monks A., McMahon J., Vistica D., Warren J. T., Bokesch H., Kenney S., Boyd M. R. J Natl. Cancer Inst, 1990, 82, 1107-1112), the cell growth rate was measured. The absorbance of the control well (C) and the test well (T) was measured at 525 nm. In addition, the time at which the drug was added was set as time 0, and the absorbance for the test well (T0) was measured. Using these measured values, the cell growth inhibitory effect (% growth=PG) was calculated by the following formula at each concentration of the drug.
(§4) (T<T0): PG=100×[(T−T0)/T]
(§5) The PG values determined above for each cell line were plotted against the concentration (logarithm) on a semi-logarithmic graph, and summarized for each visceral cancer. Concentrations at which the dose-response curve of each cell line crossed the horizontal line of PG=50%, 0%, or −50% were calculated. These concentrations were defined as Log GI50, Log TGI, and Log LC50. Actually, using two data points of the drug concentration before and after crossing each horizontal line, the drug concentration (logarithmic value) at the intersection of the straight line connecting the two points and the horizontal line for each PG was calculated.

[7] = tested on: PC-3 prostate cancer cells; assay: antitumor activity, sulforhodamine B cell growth assay, PC-3
Procedure: as §2, §3, §4, §5

[8] = tested on: KM-12 colorectal cancer cells; assay: antitumor activity, sulforhodamine B cell growth assay, KM-12; settings: Homo sapiens, KM12
Outline: as §1

[9] = tested on: OVCAR-3 cancer cells; assay: antitumor activity, sulforhodamine B cell growth assay, OVCAR-3; settings: Homo sapiens
Procedure: as §2, §3, §4, §5

[10] = tested on: OVCAR-4 cancer cells; assay: antitumor activity, sulforhodamine B cell growth assay, OVCAR-4; settings: Homo sapiens
Procedure: as §2, §3, §4, §5

[11] = tested on: MCF-7 breast cancer cells; assay: antitumor activity, sulforhodamine B cell growth assay, MCF-7; settings: Homo sapiens, MCF7
Procedure: as §2, §3, §4, §5

[12] = tested on: NCI-H226 lung cancer cells; assay: antitumor activity, sulforhodamine B cell growth assay, NCI-H226; settings: Homo sapiens
Outline: as §1

[13] = tested on: MKN45 gastric cancer cells; assay: antitumor activity, sulforhodamine B cell growth assay, MKN45; settings: Homo sapiens, MKN-45
Outline: as §1

[14] = tested on: U251 central nervous system cancer cells; assay: antitumor activity, sulforhodamine B cell growth assay, U251; settings: Homo sapiens, U-251
Outline: as §1

[15] = tested on: ACHN kidney cancer cells; assay: antitumor activity, sulforhodamine B cell growth assay, ACHN; settings: Homo sapiens
Outline: as §1

[16] = tested on: BSY-1 breast cancer cells; assay: antitumor activity, sulforhodamine B cell growth assay, BSY-1
Outline: as §1

[17] = tested on: SF-268 central nervous system cancer cells; assay: antitumor activity, sulforhodamine B cell growth assay, SF-268; settings: Homo sapiens
Procedure: as §2, §3, §4, §5

[18] = tested on: HCC2998 colorectal cancer cells; assay: antitumor activity, sulforhodamine B cell growth assay, HCC2998; settings: Homo sapiens, HCC 2998
Outline: as §1

[19] = tested on: HBC-5 breast cancer cells; assay: antitumor activity, sulforhodamine B cell growth assay, HBC-5; settings: HBC5
Outline: as §1

[20] = tested on: MKN74 gastric cancer cells; assay: antitumor activity, sulforhodamine B cell growth assay, MKN74; settings: Homo sapiens, MKN-74
Procedure: as §2, §3, §4, §5

[21] = tested on: LOX-IMVI melanoma cells; assay: antitumor activity, sulforhodamine B cell growth assay, LOX-IMVI; settings: Homo sapiens
Outline: as §1

[22] = SF-539 central nervous system cancer cells, read-out: antitumor activity GI50 value: 50% growth inhibitory concentration
[23] = DMS273 lung cancer cells, read-out: antitumor activity GI50 value: 50% growth inhibitory concentration
[24] = SF-295 central nervous system cancer cells, read-out: antitumor activity GI50 value: 50% growth inhibitory concentration
[25] = MDA-MB-231 breast cancer cells, read-out: antitumor activity GI50 value: 50% growth inhibitory concentration
[26] = DMS114 lung cancer cells, read-out: antitumor activity GI50 value: 50% growth inhibitory concentration
[27] = NCI-H23, NCl-H23 lung cancer cells, read-out: antitumor activity GI50 value: 50% growth inhibitory concentration
[28] = PC-3 prostate cancer cells, read-out: antitumor activity GI50 value: 50% growth inhibitory concentration
[29] = KM-12 colorectal cancer cells, read-out: antitumor activity GI50 value: 50% growth inhibitory concentration
[30] = OVCAR-3 cervical cancer cells, read-out: antitumor activity GI50 value: 50% growth inhibitory concentration
[31] = OVCAR-4 cervical cancer cells, read-out: antitumor activity GI50 value: 50% growth inhibitory concentration
[32] = MCF-7 breast cancer cells, read-out: antitumor activity GI50 value: 50% growth inhibitory concentration
[33] = NCI-H226, NCl-H226 lung cancer cells, read-out: antitumor activity GI50 value: 50% growth inhibitory concentration
[34] = MKN45 gastric cancer cells, read-out: antitumor activity GI50 value: 50% growth inhibitory concentration
[35] = U251 central nervous system cancer cells, read-out: antitumor activity GI50 value: 50% growth inhibitory concentration
[36] = ACHN kidney cancer cells, read-out: antitumor activity GI50 value: 50% growth inhibitory concentration
[37] = BSY-1 breast cancer cells, read-out: antitumor activity GI50 value: 50% growth inhibitory concentration
[38] = SF-268 central nervous system cancer cells, read-out: antitumor activity GI50 value: 50% growth inhibitory concentration
[39] = HCC2998 colorectal cancer cells, read-out: antitumor activity GI50 value: 50% growth inhibitory concentration
[40] = HBC-5 breast cancer cells, read-out: antitumor activity GI50 value: 50% growth inhibitory concentration
[41] = MKN74 gastric cancer cells, read-out: antitumor activity GI50 value: 50% growth inhibitory concentration
[42] = LOX-IMVI melanoma cells, read-out: antitumor activity GI50 value: 50% growth inhibitory concentration

## C#CCN1C(=O)[C@H]2[C@@H]3C=C(COc4c(C)c5c(c6c4C[C@H]4[C@H]7c8c(cc(C)c(OC)c8O)C[C@@H]([C@H](C#N)N4C6CNC(=O)[C@H](C)NC(=O)OC3)N7C)OCO5)C[C@H]2C1=O [Compound 47]
[1]; [22]
  GI50: 290 nM
[2]; [23]
  GI50: 450 nM
[3]; [24]
  GI50: 1800 nM
[4]; [25]
  GI50: 180 nM
[5]; [26]
  GI50: 31 nM
[6]; [27]
  GI50: 850 nM
[7]; [28]
  GI50: 1500 nM
[8]; [29]
  GI50: 450 nM
[9]; [30]
  GI50: 330 nM
[10]; [31]
  GI50: 3500 nM
[11]; [32]
  GI50: 63 nM
[12]; [33]
  GI50: 2300 nM
[13]; [34]
  GI50: 470 nM
[14]; [35]
  GI50: 350 nM
[15]; [36]
  GI50: 2600 nM
[16]; [37]
  GI50: 150 nM
[17]; [38]
  GI50: 620 nM
[18]; [39]
  GI50: 410 nM
[19]; [40]
  GI50: 300 nM
[20]; [41]
  GI50: 1500 nM
[21]; [42]
  GI50: 160 nM

## C#CCN1C/C=C/COc2c(C)c3c(c4c2C[C@H]2[C@H]5c6c(cc(C)c(OC)c6O)C[C@@H]([C@H](C#N)N2C4CNC(=O)[C@@H]1C)N5C)OCO3 [Compound 44]
[1]; [22]
  GI50: < 10 nM
[2]; [23]
  GI50: < 10 nM
[3]; [24]
  GI50: < 10 nM
[4]; [25]
  GI50: < 10 nM
[5]; [26]
  GI50: < 10 nM
[6]; [27]
  GI50: < 10 nM
[7]; [28]
  GI50: < 10 nM
[8]; [29]
  GI50: < 10 nM
[9]; [30]
  GI50: < 10 nM
[10]; [31]
  GI50: < 10 nM
[11]; [32]
  GI50: < 10 nM
[12]; [33]
  GI50: < 10 nM
[13]; [34]
  GI50: < 10 nM
[14]; [35]
  GI50: < 10 nM
[15]; [36]
  GI50: < 10 nM
[16]; [37]
  GI50: < 10 nM
[17]; [38]
  GI50: < 10 nM
[18]; [39]
  GI50: < 10 nM
[19]; [40]
  GI50: < 10 nM
[20]; [41]
  GI50: < 10 nM
[21]; [42]
  GI50: < 10 nM

## COc1c(C)cc2c(c1O)[C@@H]1[C@@H]3Cc4c5c(C)c6c(c4C(CNC(=O)[C@H](C)N(C)CC#CCO5)N3[C@@H](C#N)[C@H](C2)N1C)OCO6 [Compound 29]
[1]; SF-539, drug exposure 48 hours, read-out: GI50 value: 50% growth inhibitory concentration
  GI50: 1.3 nM
[2]; DMS273, drug exposure 48 hours, read-out: GI50 value: 50% growth inhibitory concentration
  GI50: 1.1 nM
[3]; SF-295, drug exposure 48 hours, read-out: GI50 value: 50% growth inhibitory concentration
  GI50: 3.4 nM
[4]; MDA-MB-231, drug exposure 48 hours, read-out: GI50 value: 50% growth inhibitory concentration
  GI50: 2.3 nM
[5]; DMS114, drug exposure 48 hours, read-out: GI50 value: 50% growth inhibitory concentration
  GI50: 0.89 nM
[6]; NCI-H23, drug exposure 48 hours, read-out: GI50 value: 50% growth inhibitory concentration
  GI50: 2.6 nM
[7]; PC-3, drug exposure 48 hours, read-out: GI50 value: 50% growth inhibitory concentration
  GI50: 3 nM
[8]; KM-12, drug exposure 48 hours, read-out: GI50 value: 50% growth inhibitory concentration
  GI50: 3.1 nM
[9]; OVCAR-3, drug exposure 48 hours, read-out: GI50 value: 50% growth inhibitory concentration
  GI50: 2.6 nM
[10]; OVCAR-4, drug exposure 48 hours, read-out: GI50 value: 50% growth inhibitory concentration
  GI50: 3.5 nM
[11]; MCF-7, drug exposure 48 hours, read-out: GI50 value: 50% growth inhibitory concentration
  GI50: 0.67 nM
[12]; NCI-H226, drug exposure 48 hours, read-out: GI50 value: 50% growth inhibitory concentration
  GI50: 2.5 nM
[13]; MKN45, drug exposure 48 hours, read-out: GI50 value: 50% growth inhibitory concentration
  GI50: 1.3 nM
[14]; U251, drug exposure 48 hours, read-out: GI50 value: 50% growth inhibitory concentration
  GI50: 1.4 nM
[15]; ACHN, drug exposure 48 hours, read-out: GI50 value: 50% growth inhibitory concentration
  GI50: 2.2 nM
[16]; BSY-1, drug exposure 48 hours, read-out: GI50 value: 50% growth inhibitory concentration
  GI50: 0.6 nM
[17]; SF-268, drug exposure 48 hours, read-out: GI50 value: 50% growth inhibitory concentration
  GI50: 2.8 nM
[18]; HCC2998, drug exposure 48 hours, read-out: GI50 value: 50% growth inhibitory concentration
  GI50: 2.8 nM
[19]; HBC-5, drug exposure 48 hours, read-out: GI50 value: 50% growth inhibitory concentration
  GI50: 1.8 nM
[20]; MKN74, drug exposure 48 hours, read-out: GI50 value: 50% growth inhibitory concentration
  GI50: 3.7 nM
[21]; LOX-IMVI, drug exposure 48 hours, read-out: GI50 value: 50% growth inhibitory concentration
  GI50: 0.59 nM
